Results reported in US9200046B2, “Reporter system for high throughput screening of compounds and uses thereof” (priority 2011, dated 2015).
Structures can show the parent of a compound that is named as a salt. Where two headings read alike, the source gives them in different places.

Target: Nrf2-Keap1 complex (Homo sapiens, UniProt Q14145)
Assay: cell-based
Format: cell-based
Details: for activation at 16 µM / activation at 32 µM: 3 h; for activation at 16 µM: read-out: Activation 100 nL; for activation at 32 µM: read-out: Activation 200 nL
[1] = Table 1A, 100 nL compound, screen run at 16 and 32 μM, 3 hr
[2] = Table 1A, 200 nL compound, screen run at 16 and 32 μM, 3 hr
[3] = Table 2, 100 nL compound, screen run at 16 and 32 μM, 3 hr
[4] = Table 2, 200 nL compound, screen run at 16 and 32 μM, 3 hr

Sequence of Nrf2-Keap1 complex (Q14145 whole entry, one chain of several): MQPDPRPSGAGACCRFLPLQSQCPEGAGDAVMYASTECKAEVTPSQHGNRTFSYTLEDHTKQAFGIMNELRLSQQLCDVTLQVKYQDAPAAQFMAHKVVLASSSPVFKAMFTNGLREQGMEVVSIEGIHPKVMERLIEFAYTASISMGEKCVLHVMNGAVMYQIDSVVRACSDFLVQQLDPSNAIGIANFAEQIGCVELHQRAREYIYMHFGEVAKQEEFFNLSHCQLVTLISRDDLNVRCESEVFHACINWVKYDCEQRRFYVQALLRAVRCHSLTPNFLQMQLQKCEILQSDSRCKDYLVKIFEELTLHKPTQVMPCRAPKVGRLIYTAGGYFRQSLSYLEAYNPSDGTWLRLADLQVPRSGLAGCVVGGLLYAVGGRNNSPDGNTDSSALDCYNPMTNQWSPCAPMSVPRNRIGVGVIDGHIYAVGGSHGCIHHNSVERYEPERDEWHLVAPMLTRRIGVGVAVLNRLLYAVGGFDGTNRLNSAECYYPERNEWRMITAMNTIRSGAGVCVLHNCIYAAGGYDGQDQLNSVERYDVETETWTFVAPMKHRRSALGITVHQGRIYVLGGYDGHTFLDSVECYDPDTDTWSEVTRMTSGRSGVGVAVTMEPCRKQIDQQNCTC

| Compound | activation at 16 µM | activation at 32 µM | 100 nL (luminescence) [3] | 200 nL (luminescence) [4] | further results |
| --- | --- | --- | --- | --- | --- |
| COc1ccc2c(c1)[C@@]1(C)CCC(=O)C[C@H]1CC2 [5beta-12-METHOXY-4,4-BISNOR-8,11,13-PODOCARPATRIEN-3-ONE] | 46% | 13% |  |  | 100 nL (luminescence) [1]: 768; 200 nL (luminescence) [2]: 636 |
| O=C1C=C2C=C[C@@H]3C[C@@]2(O1)[C@H]1CCCCN31 [SECURININE] | 84% | -14% | 2068 | 176 |  |
| CC(C)=CCCC1(C)C=Cc2c(O)c3c(c(CC=C(C)C)c2O1)OC12C(=CCCC1C(C)(C)O[C@@]2(C/C=C(\C)C(=O)O)C(=O)O)C3=O (some centres unmarked) [GARCINOLICACID] | 29% | 33% | 800 | 832 |  |
| Oc1cc(O)c2c(c1)O[C@H](c1cc(O)c(O)c(O)c1)[C@H](O)C2 [EPIGALLOCATECHIN] | 33% | -20% | 864 | 28 |  |
| CC(=O)O[C@@H]1CC2C(C)(C)[C@H](O)C=C[C@]2(C)C2CC[C@]3(C)C(=CC(=O)O[C@H]3c3ccoc3)[C@@]21C (stereo partly drawn) [3-alpha-HYDROXYDEOXYGEDININ] |  |  | 1196 | 1764 | Activation 100 nL: 55%; Activation 200 nL: 94% |
| COc1cc([C@@H]2c3cc4c(cc3[C@@H](O[C@@H]3O[C@@H]5CO[C@@H](c6cccs6)O[C@H]5[C@H](O)[C@H]3O)[C@H]3COC(=O)[C@H]23)OCO4)cc(OC)c1O [TENIPOSIDE, reference compound] | 159% | 61% | 3572 | 1520 | Neh2-luc reporter activation: 200% |
| CC(=O)OC[C@@]1(O)C[C@@]23CC[C@@H]4c5ccoc5CC[C@@]4(C)[C@@H]2CC[C@@H]1C3 [CAFESTOLACETATE] | 81% | 67% | 1452 | 1976 |  |
| O=S(=O)(O)CCS [MESNA, reference compound] | 28% | 18% |  |  | 100 nL (luminescence): 952; 200 nL (luminescence): 612 |
| NCCc1ccc(O)c(O)c1 [3-HYDROXYTYRAMINE] | 37% | 69% |  |  | 100 nL (luminescence): 990; 200 nL (luminescence): 1704 |
| COc1cc([C@@H]2c3cc4c(cc3[C@@H](O)[C@H]3COC(=O)[C@H]23)OCO4)cc(OC)c1O [4′-DEMETHYLEPIPODOPHYLLOTOXIN] |  |  |  |  | 100 nL (luminescence) [1]: 3188; 200 nL (luminescence) [2]: 2844 |
| COC(=O)CC[C@@H](C)[C@H]1CC[C@H]2[C@@H]3[C@H](O)C[C@@H]4C[C@H](O)CC[C@]4(C)[C@H]3C[C@H](O)[C@]12C [CHOLICACID, METHYLESTER] |  |  | 848 | 804 | Activation 100 nL: 36%; Activation 200 nL: 15% |
| AMSACRINEHYDROCHLORIDE [reference compound] |  |  |  |  | 100 nL (luminescence): 3384; 200 nL (luminescence): 1264; Activation 100 nL: 345%; Activation 200 nL: 40% |
| CCOCN(C(=O)CCl)c1c(C)cccc1CC [ACETOCHLOR] | 71% | 112% | 1320 | 3024 |  |
| CC(=O)[O-].CC(=O)[O-].[Cd+2] [CADMIUMACETATE] |  |  | 992 | 312 | Activation 100 nL: 47%; Activation 200 nL: −6% |
| COC(=O)c1cc(OC)c(=O)c2c(OC)c(OC)ccc2c1 [METHYL7-DESOXYPURPUROGALLIN-7-CARBOXYLATETRIMETHYLETHER] |  |  | 8248 | 1932 | Activation 100 nL: 516%; Activation 200 nL: 105% |
| COC1=CC(=O)C[C@@H](C)[C@]12Oc1c(Cl)c(OC)cc(OC)c1C2=O [GRISEOFULVIN, reference compound] | 41% | 182% | 1208 | 3684 |  |
| CC1CCC(NC(=O)N(CCCl)N=O)CC1 (centres unmarked) [SEMUSTINE, reference compound] | 39% | 144% |  |  | 100 nL (luminescence): 1172; 200 nL (luminescence): 3000 |

| Compound | activation at 16 µM | activation at 32 µM | 100 nL (luminescence) [3] | 200 nL (luminescence) [4] | further results |
| --- | --- | --- | --- | --- | --- |
| Cc1c(O)c(O)cc2c1CC=C1[C@@]2(C)CC[C@@]2(C)[C@@H]3C[C@](C)(C(=O)O)CC[C@]3(C)CC[C@]12C [DIHYDROCELASTROL] | 62% | -16% | 1196 | 88 | hit strength in the screen (words): modest hit |
| C[C@]12C=CC(=O)C=C1CC[C@@H]1[C@@H]2[C@@H](O)C[C@@]2(C)[C@H]1CC[C@]2(O)C(=O)CO [PREDNISOLONE, reference compound] | 42% | 53% |  |  | 100 nL (luminescence): 864; 200 nL (luminescence): 1452 |
| O=C(/C=C/c1ccccc1)c1ccc(O)cc1 [4′-HYDROXYCHALCONE] | 217% | 76% |  |  | 100 nL (luminescence): 3674; 200 nL (luminescence): 1488 |
| COc1cc(O)c(C(=O)/C=C/c2ccccc2)c(OC)c1 [FLAVOKAWAINB] | 144% | -21% | 2564 | 8 |  |
| COc1ccc(/C=C/C(=O)c2ccc(O)cc2O)cc1 [2′,4′-DIHYDROXY-4-METHOXYCHALCONE] | 246% | 121% | 4576 | 2720 |  |
| CC1(C)C(=O)C=C[C@]2(C)[C@H]3CC[C@@]4(C)[C@H](c5ccoc5)OC(=O)[C@H]5O[C@]54[C@]3(C)C=C[C@@H]12 [7-DESACETOXY-6,7-DEHYDROGEDUNIN] |  |  | 1660 | 188 | Activation 100 nL: 85%; Activation 200 nL: −9% |
| CNc1ccccc1C(=O)N1CCc2c([nH]c3ccccc23)C1=O [RHETSININE] | 53% | 4% |  |  | 100 nL (luminescence) [1]: 1076; 200 nL (luminescence) [2]: 532 |
| CN1CCc2cccc3c2[C@H]1Cc1ccc(O)c(O)c1-3 [APOMORPHINEHYDROCHLORIDE, reference compound] | 44% | -3% | 880 | 266 |  |
| C[C@]12CCC(=O)C=C1C=C[C@@H]1[C@@H]2CC[C@@]2(C)[C@H]1CC[C@@]21CCC(=O)O1 [CANRENONE, reference compound] | 25% | 23% |  |  | 100 nL (luminescence): 900; 200 nL (luminescence): 832 |
| O=C(/C=C/c1ccc(O)cc1)c1ccccc1O [2′,4-DIHYDROXYCHALCONE] | 390% | -9% | 3784 | 120 |  |
| COC1=CC(=O)C(C(=O)c2ccccc2)=CC1=O [2-BENZOYL-5-METHOXYBENZOQUINONE] | 72% | 83% | 994 | 2280 |  |
| CC(CCc1ccccc1)NC(C)C(O)c1ccc(O)cc1 (centres unmarked) [NYLIDRINHYDROCHLORIDE, reference compound] | 42% | 22% |  |  |  |
| CCCOc1ccc2nc(NC(=O)OC)[nH]c2c1 [OXIBENDAZOLE, reference compound] | 38% | 36% |  |  | 100 nL (luminescence) [1]: 1164; 200 nL (luminescence) [2]: 1064 |
| COC(=O)C(N)CS (centres unmarked) [MECYSTEINEHYDROCHLORIDE, reference compound] | 82% | 216% |  |  | 100 nL (luminescence): 2028; 200 nL (luminescence): 3064 |
| Oc1nc2cc(Cl)c(Cl)cc2nc1O [2,3-DIHYDROXY-6,7-DICHLOROQUINOXALINE] | 46% | 109% | 1056 | 1992 |  |
| COc1ccc(-c2coc3cc(O)ccc3c2=O)c(O)c1O [KOPARIN] | 223% | 11% | 3768 | 492 | Neh2-luc reporter activation: > 200% |
